Entries after “also recorded” stand apart in the source; their conditions may differ. Where two headings read alike, the source gives them in different places. One block for each compound: values may come before it.
How the values were obtained:
[1] = cited from earlier work; for renal toxicity: even when administered b.i.d.
[2] = log Papp, octanol/TRIS buffer pH 7.4, shake flask direct method; type: physicochemical; details: not told
Source text: The redesign of 2 was predicated on the observation that both ligands 2 and 3 were orally active iron chelators in rodents and primates (Table 1), and that when the 4′-(OH) of 2 was methylated, providing (S)-4,5-dihydro-2-(2-hydroxy-4-methoxyphenyl)-4-methyl-4-thiazolecarboxylic acid^43 [(S)-4′-(CH3O)-DADFT, 4], there was a remarkable enhancement in both ICE and lipophilicity (log Papp). The log Papp data are expressed as the log of the fraction of the chelator seen in the octanol layer; measurements were done in TRIS buffer, pH 7.4, using a “shake flask” direct method.^49 The more negative the log Papp, the less chelator is in the octanol phase, the less lipophilic. Unfortunately, the increase in ICE of 4 came with a concomitant increase in toxicity.^50 Thus, the delicate balance between the increase in ICE and toxicity with enhanced lipophilicity needed to be understood and exploited.

[3] = po, cited from earlier work; for Rodent ICE (%): historical
[4] = po, 150 μmol/kg; historical; cited from earlier work
[5] = rats, sc, 300 mol/kg (so in the source); liver; 2 hours post drug; cited from earlier work
[6] = Chelator-induced iron clearance (ICE) in iron-overloaded Cebus apella primates; type: in vivo, Cebus apella monkeys; details: 75 μmol/kg, monosodium salt
Procedure: Iron Loading of Cebus apella Monkeys. The monkeys (3.5-6.5 kg) were iron overloaded with intravenous iron dextran as specified in earlier publications to provide about 500 mg of iron per kg of body weight; the serum transferrin iron saturation rose to between 70 and 80%.^38,40 At least 20 half-lives, 60 days, elapsed before any of the animals were used in experiments evaluating iron-chelating agents.
Primate Fecal and Urine Samples. Fecal and urine samples were collected at 24 hours intervals and processed as described previously^38,40,74 Briefly, the collections began 4 days prior to the administration of the test drug and continued for an additional 5 days after the drug was given. Iron concentrations were determined by flame absorption spectroscopy as presented in other publications.^38′^40
Drug Preparation and Administration.
Calculation of Chelator Iron Clearing Efficiency (ICE).

[7] = Tissue distribution/metabolism of chelators in rats given sc (HPLC); type: in vivo, Sprague-Dawley rats
Procedure: Collection of Chelator Tissue Distribution Samples from Rodents. Male Sprague-Dawley rats (250-350 g) were given a single subcutaneously injection of the monosodium salts of 8 and 11 prepared as described above at a dose of […]. At times 0.5, 1, 2, 4 and 8 hours after dosing (n=3 rats per time point), the animals were euthanized by exposure to CO2 gas. Blood was obtained via cardiac puncture into vacutainers containing sodium citrate. The blood was centrifuged, and the plasma was separated for analysis. The liver, kidney, heart, and pancreas were removed from the animals and frozen.
Tissue Analytical Methods. Tissue samples of animals treated with 8 were prepared for HPLC analysis by homogenizing them in H2O at a ratio of 1:1 (w/v). Then, as a rinse, CH3OH at a ratio of 1:3 (w/v) was added, and the mixture was stored at −20° C. for 30 min. This homogenate was centrifuged. The supernatant was diluted with H2O, vortexed, and filtered with a 0.2 μm membrane. Analytical separation was performed on a Supelco Discovery RP Amide C16 HPLC system with UV detection at 310 nm as described previously.^44,75 Mobile phase and chromatographic conditions were as follows: solvent A, 5% CH3CN/95% buffer (25 mM KH2PO4+2.5 mM 1-octanesulfonic acid, pH 3.0); solvent B, 60% CH3CN/40% buffer.
Tissue samples of animals treated with 11 were prepared for HPLC analysis by homogenizing them in 0.5 N HClO4 at a ratio of 1:3 (w/v). Then, as a rinse, CH3OH at a ratio of 1:3 (w/v) was added, and the mixture was stored at −20° C. for 30 min. This homogenate was centrifuged. The supernatant was diluted with 95% buffer (25 mM KH2PO4, pH 3.0)/5% CH3CN, vortexed, and filtered with a 0.2 μm membrane. Analytical separation was performed on a Supelco Ascentis Express RP-Amide HPLC system with UV detection at 310 nm as described previously. Mobile phase and chromatographic conditions were as for 8.
Ligand concentrations were calculated from the peak area fitted to calibration curves by nonweighted least-squares linear regression with Shimadzu Class-VP 7.4 software.

[8] = for Rat ICE (%): 300 μmol/kg, monosodium salt
[9] = Tissue distribution/metabolism of chelators in rats given sc (HPLC); type: in vivo, Sprague-Dawley rats; details: sc 7, HPLC of tissues
[10] = 10-day toxicity trial of (S)-4′-(HO)-DADFT-HXA (11) in rats
[11] = treated rats, one day post drug, 384 μmol/kg/day po x 10 days

Structure (SMILES): CCCCOc1ccc(C2=N[C@@H](C(=O)O)CS2)c(O)c1 [4′-butoxy analogue of 2, (S)-2-(4-butoxy-2-hydroxyphenyl)-4,5-dihydro-4-thiazolecarboxylic acid]
- time of deaths ([1]; same scenario as with 10): ≤ 24 h

Structure (SMILES): C[C@]1(C(=O)O)CSC(c2ccccc2O)=N1 [Compound 1a, (S)-4,5-dihydro-2-(2-hydroxyphenyl)-4-methyl-4-thiazolecarboxylic acid]
- gastrointestinal toxicity ([1]; in vivo): serious gastrointestinal (GI) problems
- nephrotoxicity ([1]; in vivo): not overtly nephrotoxic

- Log Papp [2]: −1.17
Structure (SMILES): C[C@]1(C(=O)O)CSC(c2cccc(O)c2O)=N1 [Compound 3, (S)-2-(2,3-dihydroxyphenyl)-4,5-dihydro-4-methyl-4-thiazolecarboxylic acid]
- Rodent ICE (%) ([3]; 300 μmol/kg): 4.6 ± 0.9%
- Primate ICE (%) [4]: 23.1 ± 5.9%

- Log Papp [2]: −0.70
Structure (SMILES): COc1ccc(C2=N[C@@](C)(C(=O)O)CS2)c(O)c1 [Compound 4, (S)-4,5-dihydro-2-(2-hydroxy-4-methoxyphenyl)-4-methyl-4-thiazolecarboxylic acid]
- Rodent ICE (%) ([3]; 300 μmol/kg): 6.6 ± 2.8%
- Primate ICE (%) [4]: 24.4 ± 10.8%
- proportion of administered compound cleaved to its hydroxy metabolite (2 or 3) [5]: about 30%

- Log Papp [2]: −1.10
Structure (SMILES): COCCOCCOCCOc1ccc(C2=N[C@@](C)(C(=O)O)CS2)c(O)c1 [Compound 5, (S)-4,5-dihydro-2-[2-hydroxy-4-(3,6,9-trioxadecyloxy)phenyl]-4-methyl-4-thiazolecarboxylic acid]
- Rodent ICE (%) ([3]; 300 μmol/kg): 5.5 ± 1.9%
- Primate ICE (%) [4]: 25.4 ± 7.4%
- proportion of administered compound cleaved to its hydroxy metabolite (2 or 3) [5]: 2%
- renal toxicity [1]: no renal toxicity

- Log Papp [2]: −1.22
Structure (SMILES): COCCOCCOCCOc1cccc(C2=N[C@@](C)(C(=O)O)CS2)c1O [Compound 6, (S)-4,5-dihydro-2-[2-hydroxy-3-(3,6,9-trioxadecyloxy)phenyl]-4-methyl-4-thiazolecarboxylic acid]
- ICE ([3]; 150 μmol/kg, compound 6 dose response): 18.7±2.9%
- iron decorporated ([3]; 150 μmol/kg): 0.782 ± 0.121 mg/kg
- Rodent ICE (%) ([3]; 300 μmol/kg, 48 hour sample collection period): 10.6±4.4%
- quantity of iron excreted ([3]; 300 μmol/kg): 0.887 ± 0.367 mg/kg
- Primate ICE (%) [4]: 23.0 ± 4.1%
- proportion of administered compound cleaved to its hydroxy metabolite (2 or 3) [5]: 2.6%
- renal toxicity [1]: no renal toxicity

Structure (SMILES): C[C@]1(C(=O)O)CSC(c2ccc(OCCOCC(=O)O)cc2O)=N1 [Compound 9, (S)-4,5-dihydro-2-[2-hydroxy-4-(4-carboxy-3-oxabutyloxy)phenyl]-4-methyl-4-thiazolecarboxylic acid]
- Log Papp [2]: −1.63
- Cebus ICE (%) ([6]; po): 1.7±1.4%
- Cebus ICE (%) ([6]; sc): 17.4±9.7%
- share of drug (parent+metabolite) ([7]; sc 8, 300 μmol/kg, liver, 1 hour): 59%
- detection in liver ([7]; sc 8, 300 μmol/kg, liver, 8 hours): no metabolite 9 remains
- share of drug (parent+metabolite) ([7]; sc 8, 300 μmol/kg, plasma, 2 hour post dosing): 88%
- detection in plasma ([7]; sc 8, 300 μmol/kg, plasma, 8 hour): Neither the parent 8 nor the metabolite 9 was found at the 8 hour time point
- Rat ICE (%) ([8]; po): 6.2 ± 1.7%
- Rat ICE (%) ([8]; sc): 11.3 ± 3.4%
- metabolism of 7 to 8 and 9 in tissues [9]: not detected

Structure (SMILES): C[C@]1(C(=O)O)CSC(c2ccc(OCCCCCCO)cc2O)=N1 [Compound 11, (S)-4,5-dihydro-2-[2-hydroxy-4-(6-hydroxyhexyloxy)phenyl]-4-methyl-4-thiazolecarboxylic acid]
- Log Papp [2]: 0.21
- Cebus ICE (%) ([6]; po): 21.9±3.6%
- conversion of 11 to 12-14 ([7]; sc 11, 300 μmol/kg): Significant conversion of 11→12-14 was found in all of the tissues examined; also recorded: quickly converted to the corresponding hydrophilic metabolites; also recorded: quickly converted to the corresponding hydrophilic acids 12, 13, and 14; also recorded: very quickly converted to the corresponding acid (12)
- tissue concentration ([7]; sc 11, heart, 0.5 hour): 26 nmol/g wet weight
- detection in kidney ([7]; sc 11, kidney): trace amounts 0.5 hour post drug
- detection in liver ([7]; sc 11, liver): not found in the liver at any of the time points
- tissue concentration ([7]; sc 11, pancreas, 0.5 hour): < 5 nmol/g wet weight
- detection in plasma ([7]; sc 11, plasma): no longer detectable
- share of total (parent+metabolites) ([7]; sc 11, plasma, 0.5 hour): 22%
- Rat ICE (%) ([8]; po): 9.9 ± 0.8%
- oral absorption ([8]; rats, po): well absorbed
- overt toxicity ([8]; rats, po 300 μmol/kg, single dose): did not present with any overt toxicity; also recorded: did not display any overt toxicity; also recorded: did not elicit any signs of overt toxicity
- urinary Kim-1 excretion ([10]; baseline and not exceeded during the 10-day exposure, 384 μmol/kg/day po): < 20 ng/kg/24 hours
- histopathology ([10]; extensive tissues (25/rat), 384 μmol/kg/day po x 10 days): did not identify any drug-related abnormalities
- survival / overall toxicity ([10]; rats, po once daily for 10 days, 384 μmol/kg/day): All of the rats treated with 11 survived the exposure to the drug; also recorded: lack of toxicity
- BUN [10, 11]: 20 ± 4 mg/dL
- SCr [10, 11]: 0.5 ± 0.1 mg/dL

Structure (SMILES): C[C@]1(C(=O)O)CSC(c2ccc(OCC(=O)O)cc2O)=N1 [Compound 14, (S)-4,5-dihydro-2-[2-hydroxy-4-(carboxymethoxy)phenyl]-4-methyl-4-thiazolecarboxylic acid]
- Log Papp [2]: −1.98
- Cebus ICE (%) ([6]; po): 3.0±2.7%
- Cebus ICE (%) ([6]; sc): 15.9±4.3%
- detection in heart ([7]; sc 11, heart): not found in the 2-8 hour time points
- tissue concentration ([7]; sc 11, heart, 0.5 hour): 17 nmol/g wet weight
- tissue concentration ([7]; sc 11, heart, 1 hour): 23 nmol/g wet weight
- tissue concentration ([7]; sc 11, kidney, 0.5 hour): 156 nmol/g wet weight
- tissue concentration ([7]; sc 11, kidney, 1 hour): 201 nmol/g wet weight
- tissue concentration ([7]; sc 11, kidney, 2 hours): 161 nmol/g wet weight
- tissue concentration ([7]; sc 11, kidney, 8 hours): 5 nmol/g wet weight
- detection in liver ([7]; sc 11, liver): only trace amounts of 14 were detected
- share of total drug (parent+metabolites) ([7]; sc 11, liver, 0.5 hour): 18%
- share of total drug (parent+metabolites) ([7]; sc 11, liver, 1 hour): 39%
- detection in pancreas ([7]; sc 11, pancreas): Trace amounts of 14 were found at 0.5, 1, and 2 hours post dosing
- share of total (parent+metabolites) ([7]; sc 11, plasma, 0.5 hour): 16%
- share of total (parent+metabolites) ([7]; sc 11, plasma, 4 hours): 50%
- share of total (parent+metabolites) ([7]; sc 11, plasma, 8 hours): the remainder
- Rat ICE (%) ([8]; po): 2.6 ± 1.6%
- Rat ICE (%) ([8]; sc): 6.0 ± 1.9%
